Measured values as given in US9464064B2, “HCV helicase inhibitors and methods of use thereof” (University of Kansas, priority 2011, dated 2016).

Biological target: T1, HCV NS3 helicase NS3h_1b(con1) (Hepatitis C virus genotype 1b, UniProt Q9WMX2)
T1 construct: truncated C-terminally His-tagged NS3 proteins lacking the N-terminal protease, called NS3h; His-tag (C); made in house
Test: MBHA screen of NCI mechanistic set library at 20 μM (percent inhibition, compound interference)
Assay type: biochemical
Conditions: compounds at 20 μM; for Inh. (%) (Inhibition): calculated from Equation 1
Method in brief: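 Molecular beacon-based DNA unwinding assay; compounds screened at 20 μM in triplicate, with DMSO-only negative and 500 nM dT20 positive controls. Fluorescence (ex 643/em 670 nm) was read before and 30 min after adding ATP to 1 mM. Percent inhibition came from the change relative to DMSO controls; interference from pre-ATP fluorescence versus DMSO controls.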

[1] = MBHA with DNA substrate, assay interference calculated with Equation 2
[2] = assay interference calculated with Equation 2 (fluorescence vs DMSO-only controls before ATP)

T1 sequence (Q9WMX2 1192-1657): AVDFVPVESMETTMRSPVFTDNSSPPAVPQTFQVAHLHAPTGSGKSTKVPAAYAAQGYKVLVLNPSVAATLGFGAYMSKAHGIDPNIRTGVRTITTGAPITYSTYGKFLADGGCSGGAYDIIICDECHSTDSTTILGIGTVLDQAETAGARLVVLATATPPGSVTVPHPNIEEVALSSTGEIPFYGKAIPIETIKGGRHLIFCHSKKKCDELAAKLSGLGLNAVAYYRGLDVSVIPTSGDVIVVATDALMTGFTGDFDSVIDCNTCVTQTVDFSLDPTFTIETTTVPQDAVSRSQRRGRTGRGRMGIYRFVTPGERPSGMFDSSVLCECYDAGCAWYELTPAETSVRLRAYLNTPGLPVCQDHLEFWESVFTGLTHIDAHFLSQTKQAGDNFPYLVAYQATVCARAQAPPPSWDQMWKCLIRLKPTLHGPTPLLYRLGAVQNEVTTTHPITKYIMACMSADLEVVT

O=C(Nc1cccc(C(F)(F)F)c1)C(=O)C(C(=O)c1ccc(Cl)c(Cl)c1)C1OC(=O)c2ccccc21 (stereo not shown) [Compound 644794]
Int.* (Ratio) (Interference) [1]: 0.96 Ratio
Inh. (%) (Inhibition) (MBHA with DNA substrate): −17.5%

Clc1ccc(-c2c(C3=NCCCN3)nnn2-c2ccc(Cl)cc2)cc1 [Compound 645033]
Int.* (Ratio) (Interference) [1]: 0.96 Ratio
Inh. (%) (Inhibition) (MBHA with DNA substrate): −18.4%

CC(C)OP(=O)(OC(C)C)C(N(C)C)P(=O)(OC(C)C)OC(C)C.[Cl][Sn]([Cl])([Cl])[c]1ccccc1 [Compound 645567]
Int.* (Ratio) (Interference) [1]: 1.04 Ratio
Inh. (%) (Inhibition) (MBHA with DNA substrate): 2.4%

Oc1cc(-n2cccn2)c(O)cc1-n1cccn1 [Compound 645987]
Inh. (%) (Inhibition) (MBHA with a DNA substrate): −7.0%
Int.* (Ratio) (Interference) [2]: 0.88 Ratio

CCOC(OC1=C(C#N)CCC1)C(C)[Se]c1ccccc1 (stereo not shown) [Compound 646189]
Int.* (Ratio) (Interference) [1]: 0.92 Ratio
Inh. (%) (Inhibition) (MBHA with DNA substrate): −1.0%

CCOC(OCC)C(CC)[Se]c1ccccc1[N+](=O)[O-] (stereo not shown) [Compound 646200]
Inh. (%) (Inhibition) (MBHA with a DNA substrate): −3.7%
Int.* (Ratio) (Interference) [2]: 1.14 Ratio

COc1cc(/C=C(\OC(C)=O)c2ccc3c(c2)OCO3)cc(OC)c1OC [Compound 647363]
Int.* (Ratio) (Interference) [1]: 0.93 Ratio
Inh. (%) (Inhibition) (MBHA with DNA substrate): −17.1%

CN/N=C(\C)C(CN1CCCCC1)C(C1=C(O)c2ccccc2OC1)c1ccccc1.Cl (stereo not shown) [Compound 647418]
Inh. (%) (Inhibition) (MBHA with a DNA substrate): −24.7%
Int.* (Ratio) (Interference) [2]: 1.00 Ratio

O=C1Oc2ccccc2C1C/C(=N\Nc1ccccc1)c1ccccc1O (stereo not shown) [Compound 647613]
Int.* (Ratio) (Interference) [1]: 0.91 Ratio
Inh. (%) (Inhibition) (MBHA with DNA substrate): 23.5%

CN(C)[C@H]1CCC2[C@@H]3CCC4C[C@@H](NC(=O)NC(Cc5ccccc5)c5nccs5)CC[C@]4(C)C3CC[C@@]21C (stereo partly shown) [Compound 647889]
Int.* (Ratio) (Interference) [1]: 0.89 Ratio
Inh. (%) (Inhibition) (MBHA with DNA substrate): 1.6%

O=C(C=C1SCCS1)/C=C\c1ccc(Cl)cc1 [Compound 648320]
Inh. (%) (Inhibition) (MBHA with a DNA substrate): −32.6%
Int.* (Ratio) (Interference) [2]: 1.08 Ratio

COc1cc(CC(=O)c2cc3c(cc2-c2ccccc2)OCO3)cc(OC)c1OC [Compound 648419]
Inh. (%) (Inhibition) (MBHA with a DNA substrate): 8.6%
Int.* (Ratio) (Interference) [2]: 0.90 Ratio

COc1cc(/C=C(\C)c2ccc3c(c2)OCO3)cc(OC)c1OC [Compound 648422]
Int.* (Ratio) (Interference) [1]: 1.02 Ratio
Inh. (%) (Inhibition) (MBHA with DNA substrate): −17.5%

Cc1nc2c(o1)C(=O)c1ccccc1C2=Nc1ccccc1 [Compound 650573]
Int.* (Ratio) (Interference) [1]: 0.86 Ratio
Inh. (%) (Inhibition) (MBHA with DNA substrate): −14.3%

Cc1ccc(S(=O)(=O)N2CCSCCSCCSCCSCC2)cc1 [Compound 650792]
Int.* (Ratio) (Interference) [1]: 0.86 Ratio
Inh. (%) (Inhibition) (MBHA with DNA substrate): −1.2%

CCC(=O)OC1CCn2c1nc1c2C(=O)C(C)=C(N2CC2)C1=O (stereo not shown) [Compound 651079]
Int.* (Ratio) (Interference) [1]: 1.05 Ratio
Inh. (%) (Inhibition) (MBHA with DNA substrate): −16.7%

CC1=C(N2CC2)C(=O)c2nc3n(c2C1=O)CCC3OC(=O)CCl (stereo not shown) [Compound 651080]
Inh. (%) (Inhibition) (MBHA with a DNA substrate): −4.4%
Int.* (Ratio) (Interference) [2]: 0.85 Ratio

COCC(=O)OC1CCn2c1nc1c2C(=O)C(C)=C(NC(C)=O)C1=O (stereo not shown) [Compound 651084]
Inh. (%) (Inhibition) (MBHA with a DNA substrate): 8.1%
Int.* (Ratio) (Interference) [2]: 0.95 Ratio

COc1ccc(/C=C2/C(=O)N(C(=O)c3ccccc3O)N=C2C)cc1 [Compound 652174]
Int.* (Ratio) (Interference) [1]: 0.87 Ratio
Inh. (%) (Inhibition) (MBHA with DNA substrate): 33.4%

OCc1ccc(-c2ccc(-c3ccc(CO)s3)o2)s1 [Compound 652287]
Inh. (%) (Inhibition) (MBHA with a DNA substrate): −5.4%
Int.* (Ratio) (Interference) [2]: 0.98 Ratio
